# From patent publication US20080214529A1, “SATURATED FUSED [1,2-b]PYRIDAZINONE COMPOUNDS” (priority 2006, published 2008)
# Counter-ions that a name gives are not always drawn.
# Molecular target: NS5B polymerase (Hepatitis C virus genotype 1b, UniProt P26663)
# Experiment: biochemical
# Conditions: NS5B polymerase inhibition; 20 nM enzyme, 75 min at 28° C.
# Protocol: Compounds were tested for HCV polymerase inhibition. Assays were performed in a 96-well streptavidin-coated FlashPlate using 20 nM enzyme, 0.5 μCi of [α-^33P]GTP, 0.6 μM GTP, and 250 nM 5′biotinylated oligo (rG13)/poly rC in 20 mM Tris-HCl, pH 7.5, 5 mM MgCl2, 5 mM dithiothreitol, 0.1 g/L bovine serum albumin, and 100 U/mL RNAse inhibitor. The reaction was stopped by aspiration after 75 min at 28° C. and the plate was washed several times. After washing and drying the plate, incorporated radioactivity was counted using a Microbeta scintillation counter. IC50 values were calculated relative to the uninhibited control and inhibition data were fitted to a 4-parameter IC50 equation.
# NS5B polymerase, sequence (P26663 2420-3010): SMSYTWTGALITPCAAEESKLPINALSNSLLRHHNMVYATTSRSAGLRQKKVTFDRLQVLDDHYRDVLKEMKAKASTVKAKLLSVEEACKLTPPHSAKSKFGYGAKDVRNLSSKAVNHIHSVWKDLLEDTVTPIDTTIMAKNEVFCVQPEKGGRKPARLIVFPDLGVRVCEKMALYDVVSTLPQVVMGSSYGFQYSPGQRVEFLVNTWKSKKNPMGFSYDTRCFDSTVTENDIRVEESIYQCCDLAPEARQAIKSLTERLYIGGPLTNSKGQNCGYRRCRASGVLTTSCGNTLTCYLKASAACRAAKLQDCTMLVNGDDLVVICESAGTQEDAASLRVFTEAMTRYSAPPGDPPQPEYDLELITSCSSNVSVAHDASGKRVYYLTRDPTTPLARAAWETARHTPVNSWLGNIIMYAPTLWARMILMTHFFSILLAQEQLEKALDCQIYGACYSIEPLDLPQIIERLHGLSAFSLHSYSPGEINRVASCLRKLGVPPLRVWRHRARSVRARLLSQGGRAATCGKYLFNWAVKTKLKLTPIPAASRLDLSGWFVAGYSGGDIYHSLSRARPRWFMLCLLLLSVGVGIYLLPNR
row,Structure (SMILES),IC50 [nM]
1,"CS(=O)(=O)Nc1ccc2c(c1)S(=O)(=O)N=C(C1=C(O)C3C4CCC(C4)N3N(Cc3ccc(F)cc3)C1=O)N2 (stereo not drawn) [Example 9, N-{3-[3-(4-Fluoro-benzyl)-6-hydroxy-4-oxo-2,3-diaza-tricyclo[6.2.1.0^2,7]undec-5-en-5-yl]-1,1-dioxo-1,4-dihydro-1λ^6-benzo[1,2,4]thiadiazin-7-yl}-methanesulfonamide]",< 20
2,"CS(=O)(=O)Nc1ccc2c(c1)S(=O)(=O)N=C(C1=C(O)C3CC4CCCC4N3N(C3CCCCC3)C1=O)N2 (single isomer, unassigned) [10 Isomer 1]",200 to 3000
3,"CS(=O)(=O)Nc1ccc2c(c1)S(=O)(=O)N=C(C1=C(O)[C@]34C[C@H]3CCN4N(Cc3ccc(F)cc3)C1=O)N2 [Example 12, (1aR,7aS)-N-{3-[4-(4-Fluoro-benzyl)-7-hydroxy-5-oxo-1,1a,2,3,4,5-hexahydro-3a,4-diaza-cyclopropa[c]inden-6-yl]-1,1-dioxo-1,4-dihydro-1λ^6-benzo[1,2,4]thiadiazin-7-yl}-methanesulfonamide]",20 to 200
4,"CC(C)(C)CCN1C(=O)C(C2=NS(=O)(=O)c3cc(NS(C)(=O)=O)ccc3N2)=C(O)C2CCCCN21 (stereo not drawn) [Example 2, N-{3-[1-(3,3-Dimethyl-butyl)-4-hydroxy-2-oxo-2,4a,5,6,7,8-hexahydro-1H-pyrido[1,2-b]pyridazin-3-yl]-1,1-dioxo-1,4-dihydro-1λ^6-benzo[1,2,4]thiadiazin-7-yl}-methanesulfonamide]",20 to 200
5,"CS(=O)(=O)Nc1ccc2c(c1)S(=O)(=O)N=C(C1=C(O)C3CCCCN3N(Cc3ccc(F)cc3)C1=O)N2 (stereo not drawn) [Example 1, N-{3-[1-(4-Fluoro-benzyl)-4-hydroxy-2-oxo-2,4a,5,6,7,8-hexahydro-1H-pyrido[1,2-b]pyridazin-3-yl]-1,1-dioxo-1,4-dihydro-1λ^6-benzo[1,2,4]thiadiazin-7-yl}-methanesulfonamide]",< 20
6,"CC(C)(C)CCN1C(=O)C(C2=NS(=O)(=O)c3cc(NS(C)(=O)=O)ccc3N2)=C(O)C2CCCN21 (stereo not drawn) [Example 3, N-{3-[1-(3,3-Dimethyl-butyl)-4-hydroxy-2-oxo-1,2,4a,5,6,7-hexahydro-pyrrolo[1,2-b]pyridazin-3-yl]-1,1-dioxo-1,4-dihydro-1λ^6-benzo[1,2,4]thiadiazin-7-yl}-methanesulfonamide]",< 20
7,"CC(C)(C)CCN1C(=O)C(C2=NS(=O)(=O)c3cc(NS(C)(=O)=O)ccc3N2)=C(O)C2(C)CCCN12 (stereo not drawn) [Example 4, N-{3-[1-(3,3-Dimethyl-butyl)-4-hydroxy-4a-methyl-2-oxo-1,2,4a,5,6,7-hexahydro-pyrrolo[1,2-b]pyridazin-3-yl]-1,1-dioxo-1,4-dihydro-1λ^6-benzo[1,2,4]thiadiazin-7-yl}-methanesulfonamide]",20 to 200
8,"CN1N(CCC(C)(C)C)C(=O)C(C2=NS(=O)(=O)c3cc(NS(C)(=O)=O)ccc3N2)=C(O)C12CCCC2 [Example 5, N-{3-[7-(3,3-Dimethyl-butyl)-10-hydroxy-6-methyl-8-oxo-6,7-diaza-spiro[4.5]dec-9-en-9-yl]-1,1-dioxo-1,4-dihydro-1λ^6-benzo[1,2,4]thiadiazin-7-yl}-methanesulfonamide]",200 to 3000
9,"CC(C)CCN1C(=O)C(C2=NS(=O)(=O)c3cc(NS(C)(=O)=O)ccc3N2)=C(O)C2CCCN21 (stereo not drawn) [Example 6, N-{3-[4-Hydroxy-1-(3-methyl-butyl)-2-oxo-1,2,4a,5,6,7-hexahydro-pyrrolo[1,2-b]pyridazin-3-yl]-1,1-dioxo-1,4-dihydro-1λ^6-benzo[1,2,4]thiadiazin-7-yl}-methanesulfonamide]",< 20
10,"CS(=O)(=O)Nc1ccc2c(c1)S(=O)(=O)N=C(C1=C(O)[C@@H]3C4CCC(CC4)N3N(Cc3ccc(F)cc3)C1=O)N2 [Example 11, (7S)-N-{3-[3-(4-Fluoro-benzyl)-6-hydroxy-4-oxo-2,3-diaza-tricyclo[6.2.2.0^2,7]dodec-5-en-5-yl]-1,1-dioxo-1,4-dihydro-1λ^6-benzo[1,2,4]thiadiazin-7-yl}-methanesulfonamide]",20 to 200
11,"CS(=O)(=O)Nc1ccc2c(c1)S(=O)(=O)N=C(C1=C(O)C3CCCN3N(Cc3ccc(F)cc3)C1=O)N2 (stereo not drawn) [Example 7, N-{3-[1-(4-Fluoro-benzyl)-4-hydroxy-2-oxo-1,2,4a,5,6,7-hexahydro-pyrrolo[1,2-b]pyridazin-3-yl]-1,1-dioxo-1,4-dihydro-1λ^6-benzo[1,2,4]thiadiazin-7-yl}-methanesulfonamide]",< 20

# Tested on: not given
# Experiment: not given
# Conditions: not given
row,Structure (SMILES),melting point [°C]
1,"CN1N(CCC(C)(C)C)C(=O)C(C2=NS(=O)(=O)c3cc(NS(C)(=O)=O)ccc3N2)=C(O)C12CCCC2 (as salt: trifluoroacetic acid salt) [Example 5, N-{3-[7-(3,3-Dimethyl-butyl)-10-hydroxy-6-methyl-8-oxo-6,7-diaza-spiro[4.5]dec-9-en-9-yl]-1,1-dioxo-1,4-dihydro-1λ^6-benzo[1,2,4]thiadiazin-7-yl}-methanesulfonamide]",203.8 to 205.7
